Assay [1] addresses sigma receptor. Nature of the assay: Sigma receptor binding assay ([3H]DTG, guinea pig brain membrane homogenates). Particulars: displacement of [3H]DTG, guinea pig brain membranes. On the procedure:
Sigma Receptor Binding Assay
Briefly, frozen whole guinea-pig brains (Biotrol, Indianapolis, Ind.) were homogenized in 10 volumes (w/v) of ice-cold 320 mM sucrose using a Brinkman polytron. The homogenate was centrifuged at 1,000×g for 20 minutes at 4° C. The supernatant was centrifuged at 20,000×g for 20 minutes at 4° C. The resulting pellet was resuspended in 10 initial volumes of 50 mM Tris/HCl buffer at pH 7.4 and centrifuged at 20,000×g for 20 minutes at 4° C. The resulting pellet was resuspended in 5 initial volumes ice-cold 50 mM Tris/HCl (pH 7.4), and the final volume was adjusted to yield a protein concentration of 3 mg/ml. Aliquots of 20-ml were stored at -70° C. until used, with no detectable loss of binding.
The protein concentration in the 1-ml final incubation volume was 800 μg/ml, corresponding to 32 mg of brain tissue (original wet weight) and to a tissue concentration within the linear range for specific binding. […] Incubations were terminated after 90 minutes at room temperature by addition of 4 ml of ice-cold 50 mM Tris/HCl (pH 7.4) and rapid filtration of the membrane suspension through Whatman GF/B glass-fiber filters under vacuum, using a 48-well cell harvester (Brandel). The filters were washed 2 times with 4 ml of 50 mM Tris/HCl (pH 7.4). […] IC50 values were determined by non-linear regression analysis.

For assay [2], the target named is PCP receptor. Nature of the assay: PCP receptor radioligand binding assay ([3H]MK-801, rat brain membranes). Particulars: read-out: [3H-MK801] IC50; displacement of [3H]MK-801, rat brain membranes. On the technique in general: In a radioligand displacement assay an active substance lowers the binding of a labelled ligand.

The source of these data is patent US6153604A, “Therapeutic substituted guanidines” (Cambridge NeuroScience, Inc., priority 1995, dated 2000).

A word on the IC50: it is the point on the concentration scale where inhibition reaches its midpoint.

Structures can show the parent of a compound that is named as a salt.

On to `CCc1cccc(N(C)C(=N)Nc2cc(C(F)(F)F)ccc2F)c1` [Compd. No. 14 (Table I), N-(3-Ethylphenyl)-N-methyl-N'-(2-fluoro-5-trifluoromethylphenyl)guanidine hydrochloride], for which the IC50 was found to be 85 nM in assay [1] and 252 nM in assay [2].
On the same counts, the results for `CCc1cccc(NC(=N)Nc2cc(C(F)(F)F)ccc2Cl)c1` [Compd. No. 6 (Table I), N-(3-Ethylphenyl)-N'-(2-chloro-5-trifluoromethylphenyl)guanidine hydrochloride] are 14.2 nM and 57.1 nM.
In the case of `CCc1cccc(N(C)C(=N)Nc2cc(SC)ccc2Br)c1` [Compd. No. 59 (Table I)], the IC50 in assay [1] was 240 nM; in assay [2] it was 3.19 nM.
Take `CCc1ccc(Cl)c(N(C)C(=N)Nc2cccc3ccccc23)c1` [Compd. No. 57 (Table I), N-(1-Naphthyl)-N'-(2-chloro-5-ethylphenyl)-N'-methylguanidine hydrochloride]: the IC50 stood at 136 nM in assay [1] and 32.8 nM in assay [2].
On to `CSc1cccc(N(C)C(=N)Nc2cc(Br)ccc2Br)c1` [Compd. No. 65 (Table I), N-(3-Methylthiophenyl)-N-methyl-N'-(2,5-dibromophenyl)guanidine hydrochloride], for which the IC50 in assay [2] is 5.38 nM.
With `CN(C(=N)Nc1cc(Br)ccc1Br)c1cccc(C(F)(F)F)c1` [Compd. No. 71 (Table I), N-(3-Trifluoromethylphenyl)-N-methyl-N'-(2,5-dibromophenyl)guanidine hydrochloride], the IC50 was determined as 224 nM in assay [1] and 34 nM in assay [2].
For the compound `N=C(Nc1cc(C(F)(F)F)ccc1Br)Nc1cccc2ccccc12` [Compd. No. 41 (Table I), N-(1-Naphthyl)-N'-(2-bromo-5-trifluoromethylphenyl)guanidine hydrochloride], the results for the IC50 in assay [1] and in assay [2] were 49.6 nM and 51.1 nM, respectively.
For the compound `CCc1cccc(N(C)C(=N)Nc2cccc(Cl)c2)c1` [Compd. No. 12 (Table I)], the IC50 was determined as 43.5 nM in assay [1] and 646 nM in assay [2].
Regarding `CCc1cccc(N(C)C(=N)N(C)c2cc(Cl)ccc2Cl)c1` [Compd. No. 26 (Table I), N-(3-Ethylphenyl)-N-methyl-N'-(2,5-dichlorophenyl)-N'-methylguanidine hydrochloride], in assay [2], the IC50 amounted to 93.7 nM.
In the case of `CCc1cccc(N(C)C(=N)N(C)c2cc(Br)ccc2Br)c1` [Compd. No. 27 (Table I), N-(3-Ethylphenyl)-N-methyl-N'-(2,5-dibromophenyl)-N'-methylguanidine hydrochloride], the values for the IC50 in assay [1] and in assay [2] were 380 nM and 35.5 nM, respectively.
Turning to `CSc1cccc(NC(=N)Nc2cccc3ccccc23)c1` [Compd. No. 47 (Table I)], the results for the IC50 in assay [1] and in assay [2] were 27 nM and 124 nM, respectively.
Regarding `Cc1ccc(C)c(NC(=N)Nc2cccc3ccccc23)c1` [Compd. No. 33 (Table I), N-(1-Naphthyl)-N'-(2,5-dimethylphenyl)guanidine hydrochloride], the IC50 in assay [1] was 27.4 nM; in assay [2], 79.2 nM.
Consider `CCc1ccc(Cl)c(NC(=N)Nc2cccc3ccccc23)c1` [Compd. No. 44 (Table I), N-(1-Naphthyl)-N'-(2-chloro-5-ethylphenyl)guanidine hydrochloride], for which the IC50 in assay [1] turned out to be 4.94 nM; in assay [2] it was 20.6 nM.
Turning to `CSc1cccc(N(C)C(=N)Nc2cc(SC)ccc2Br)c1` [Compd. No. 63 (Table I), N-(3-Methylthiophenyl)-N-methyl-N'-(2-bromo-5-methylthiophenyl)guanidine], in assay [2], the IC50 was 2.15 nM.
As for `CCc1cccc(N(C)C(=N)Nc2cc(SC)ccc2Cl)c1` [Compd. No. 24 (Table I), N-13-Ethylphenyl)-N-methyl-N'-(2-chloro-5-methylthiophenyl)guanidine hydrochloride], the IC50 in assay [1] amounted to 310 nM; in assay [2] it was 6.7 nM.
Consider `CCc1cccc(N(C)C(=N)Nc2cc(CC)ccc2F)c1` [Compd. No. 20 (Table I), N-(3-Ethylphenyl)-N-methyl-N'-(2-fluoro-5-ethylphenyl)guanidine hydrochloride], for which the results for the IC50 in assay [1] and in assay [2] were 112 nM and 126 nM, respectively.
`CSc1ccc(Cl)c(NC(=N)Nc2cccc3ccccc23)c1` [Compd. No. 46 (Table I), N-(1-Naphthyl)-N'-(2-chloro-5-thiomethylphenyl)guanidine hydrochloride]: the IC50 turned out to be 25.4 nM in assay [1] and 43 nM in assay [2].
On the same counts, the results for `CCc1cccc(NC(=N)Nc2cc(SC)ccc2Cl)c1` [Compd. No. 25 (Table I), N-(3-Ethylphenyl)-N'-(2-chloro-5-methylthiophenyl)guanidine hydrochloride] are 15.8 nM and 15.4 nM.
For `CN(C(=N)Nc1cccc2ccccc12)c1cccc(Cl)c1` [Compd. No. 52 (Table I)], the concentration for half-maximal inhibition (IC50) in assay [1] was found to be 2980 nM; in assay [2] it was 107 nM.
As to `CCc1cccc(N(C)C(=N)Nc2cccc3ccccc23)c1` [Compd. No. 58 (Table I)], the IC50 in assay [1] was 2540 nM; in assay [2], 37.5 nM.
In the same order, the values of `Cc1ccc(Cl)c(NC(=N)Nc2cccc3cccnc23)c1` [Compd. No. 48 (Table I), N-(8-Quinolinyl)-N'-(2-chloro-5-methylphenyl)guanidine hydrochloride] are 989 nM and 32 nM.
For the compound `CN(C(=N)Nc1cc(Br)ccc1Br)c1cccc([S+](C)[O-])c1` (centres unmarked) [Compound 76], the IC50 in assay [2] was 322 nM.
As to `CSc1ccc(Cl)c(NC(=N)N(C)c2cccc(I)c2)c1` [Compound 77], the IC50 in assay [2] was determined as 2.11 nM.
For the compound `CSc1ccc(Cl)c(NC(=N)N(C)c2cccc(Br)c2)c1` [Compd. No. 72 (Table I), N-(3-Bromophenyl)-N-methyl-N'-(2-chloro-5-methylthiophenyl)guanidine hydrochloride], the IC50 in assay [2] amounted to 4.65 nM.
For the compound `CCc1cccc(N(C)C(=N)N(C)c2cc(CC)ccc2Cl)c1` [Compd. No. 28 (Table I), N-(3-Ethylphenyl)-N-methyl-N'-(2-chloro-5-ethylphenyl)-N'-methylguanidine hydrochloride], the half-inhibitory concentration (IC50) in assay [2] is 145 nM.
Compound `CCc1ccc(Br)c(NC(=N)N(C)c2cccc(SC)c2)c1` [Compd. No. 64 (Table I), N-(3-Methylthiophenyl)-N-methyl-N'-(2-bromo-5-ethylphenyl)guanidine hydrochloride] returned an IC50 in assay [1] of 180 nM.
In the case of `CCc1ccc(Br)c(NC(=N)N(C)c2cccc(OC(F)(F)F)c2)c1` [Compound 74], the IC50 in assay [2] turned out to be 16 nM.
For `CN(C(=N)Nc1cc(Cl)ccc1Cl)c1cccc(C(F)(F)F)c1` [Compd. No. 68 (Table I), N-(3-Trifluoromethylphenyl)-N-methyl-N'-(2,5-dichlorophenyl)guanidine hydrochloride], in assay [1], the IC50 stood at 110 nM.
For the compound `CCc1ccc(Cl)c(NC(=N)Nc2cccc(I)c2)c1` [Compound 78], the IC50 in assay [2] came to 13.7 nM.
Turning to `CN(C(=N)Nc1cccc2ccccc12)c1cccc(Br)c1` [Compd. No. 53 (Table I)], the IC50 in assay [2] was 54 nM.
Consider `CN(C(=N)Nc1cc(Br)ccc1Br)c1cccc(S(C)(=O)=O)c1` [Compound 75], for which the IC50 in assay [2] turned out to be 530 nM.
As to `CN(C(=N)Nc1cc(Br)ccc1Br)c1cccc(OC(F)(F)F)c1` [Compd. No. 73 (Table I), N-(3-Trifluoromethoxyphenyl)-N'-(2,5-dibromophenyl)-N-methylguanidine hydrochloride], the IC50 in assay [2] is 25.6 nM.
